Tests used:
[1] = system: soybean cyst nematode J2s; test: Soybean cyst nematode J2 treatment in Petri dish (cuticle covering, molting, death); type: in vivo; settings: 0.25% Composition in DI water; ten freshly hatched J2s per dish, three replicates
[2] = system: soybean cyst nematode J2s; test: as above; type: in vivo; settings: for MEAN SCN Covered Cuticle / MEAN SCN Dead J2s: ten freshly hatched J2s per dish, three replicates
Source text: Different developmental stages of soybean cyst nematode were targeted for treatment in soil. Soybean cyst nematode has an egg stage, four juvenile stages (samples J1 to J4), adult male and female stages. From J1 to adult development, during each development stage, the nematode undergoes a molt, that is, a shedding of the outside cuticle and forming a new cuticle.
Ten freshly hatched J2s were removed from pure culture and added to three different concentrations (0.5 weight %, […], and 0.12 weight % of Composition solution in a […] Petri dish containing DI water. Composition is (CH3O)3Si(CH2)3N^+ C18H37(CH3)2 Cl^−.
Observations were made over time under an inverted microscope and compound microscope and for both soybean cyst nematode in Composition and also in just DI water which were replicated three times.

CCCCCCCCCCCCCCCCCC[N+](C)(C)CCC[Si](OC)(OC)OC.[Cl-] [Composition, 3-(trimethoxysilyl)-propyldimethyloctadecyl ammonium chloride]
MEAN SCN Covered Cuticle [1]: 5.16 | MEAN SCN Dead J2s [1]: 7.66 | MEAN SCN Covered Cuticle ([2]; 0.12% Composition in DI water): 5.3 | MEAN SCN Dead J2s ([2]; 0.12% Composition in DI water): 6.66 | MEAN SCN Covered Cuticle ([2]; 0.5% Composition in DI water): 5.16 | MEAN SCN Dead J2s ([2]; 0.5% Composition in DI water): 8.00 | Microscopic observation of J2s after one day ([2]; all concentrations, after one day): accumulates on the cuticle of J2s | Microscopic observation of J2s on the second day ([2]; all concentrations, second day): J2s shed the cuticle | Statistical effect on soybean cyst nematode J2s (covered cuticles and dead nematodes versus treatment) ([2]; all tested concentrations): significantly affects the soybean cyst nematode J2s | Overall effect on the nematode in vitro ([2]; in vitro): cuticle disruption and therefore accelerated molting of the nematode in vitro and ultimate death of the nematodes

Reference: patent US11528909B2, “Method of controlling nematodes in agricultural crops” (priority 2020, dated 2022)
